From patent US4210636A, “Antisecretory polypeptides” (American Home Products Corporation, priority 1978, dated 1980)
Bridge positions count the residues as written; N and C are the ends. Square brackets hold non-standard residues; d marks the D form. Peptide text beside a SMILES is read from it. Mpa = O=C(O)CCS

Tests used:
[1] = system: gastric secretion (total gastric volume, hydrogen ion secretion, hydrogen ion concentration); assay: Anti-secretory activity in pylorus-ligated (Shay) rat, s.c.; format: in vivo; conditions: for hydrogen ion secretion / total gastric volume: at the reported potency dose (IV 26.3 mg/kg; V and VI 4.40 mg/kg); for Antisecretory potency: lowest dose administered at which two of the three parameters (total gastric volume, hydrogen ion secretion, hydrogen ion concentration) were significantly decreased: pylorus-ligated male Charles River rats, 4 hours after ligation
Procedure: Each of the polypeptides of this invention was tested and found active parenterally (s.c.) in the scientifically recognized, standard test for anti-secretory activity which involves the following procedure in which male Charles River rats weighing 190-260 grams are deprived of food but not water for eighteen hours prior to use. Water is withheld during the actual experiment. The rats are weighed, anesthetized with ether and the pylorus is ligated according to the method of Shay et al., Gastroenterology, 26, 906-913 (1954). Treatment or vehicle control is then administered subcutaneously (s.c.). The rats are housed two per cage and sacrificed with CO2 four hours after ligation. The stomachs are removed, rinsed, and contents emptied into a graduated centrifuge tube. The tubes are centrifuged for twenty minutes at two thousand revolutions per minute and the volume of gastric juice is recorded. Any sample which is obviously contaminated with feces, food or blood is eliminated. An aliquot of each sample is frozen for later analysis of pepsin. The pH is measured and one milliliter of gastric juice is titrated with 0.1 N NaOH to a pH of 7.0-7.4. The data are analyzed by analysis of variance and, using the pooled error variance, t-comparisons are made between the groups.
(§1) The potency of each compound is reported at the end of each example illustrating its production. […] In addition, the maximum dose employed to evaluate control of growth hormone, insulin and glucagon secretion is reported.

growth hormone secretion = assay: In vivo growth hormone secretion test
From the text: as §1

insulin secretion = assay: In vivo insulin secretion test
From the text: as §1

glucagon secretion = assay: In vivo glucagon secretion test
From the text: as §1

gastric acid secretion = conditions: dose as high as 2 μm/Kg, s.c.; cited from earlier work

| Compound | hydrogen ion secretion ([1]; pylorus-ligated rat) | total gastric volume ([1]; pylorus-ligated rat) | Antisecretory potency: lowest dose administered at which two of the three parameters (total gastric volume, hydrogen ion secretion, hydrogen ion concentration) were significantly decreased [1] [mg/kg] | Growth hormone secretion not inhibited at highest dose tested (growth hormone secretion) [mg/kg] | Insulin secretion not inhibited at highest dose tested (insulin secretion) [mg/kg] | Glucagon secretion not inhibited at highest dose tested (glucagon secretion) [mg/kg] | Dose that effectively inhibits secretion of growth hormone (growth hormone secretion; reference) | Dose that effectively inhibits secretion of insulin (insulin secretion; reference) | Dose that effectively inhibits secretion of glucagon (glucagon secretion; reference) | pH (gastric juice) ([1]; at 4.40 mg/kg, pylorus-ligated rat) | effect on gastric acid secretion (gastric acid secretion) |
| --- | --- | --- | --- | --- | --- | --- | --- | --- | --- | --- | --- |
| C[C@@H]1NC(=O)[C@H](CCCCN)NC(=O)[C@@H](N)CSSC[C@@H](C(=O)O)NC(=O)[C@H](CO)NC(=O)[C@H]([C@@H](C)O)NC(=O)[C@H](Cc2ccccc2)NC(=O)[C@H]([C@@H](C)O)NC(=O)[C@H](CCCCN)NC(=O)[C@H](Cc2c[nH]c3ccccc23)NC(=O)[C@H](Cc2ccccc2)NC(=O)[C@H](CO)NC1=O [IV, L-Cysteinyl-L-lysyl-L alanyl-L-seryl-L-phenylalanyl-L-tryptophyl-L-lysyl-L-threonyl-L-phenylalanyl-L-threonyl-L-seryl-L-cysteine cyclic (1→12) disulfide] (H-CKASFWKTFTSC-OH; disulfide 1-12) | significantly reduced | significantly reduced | 26.3 | > 3.10 | > 3.10 | > 3.10 |  |  |  |  |  |
| C[C@H](N)C(=O)NCC(=O)N[C@H]1CSSC[C@@H](C(=O)O)NC(=O)[C@H](CO)NC(=O)[C@H]([C@@H](C)O)NC(=O)[C@H](Cc2ccccc2)NC(=O)[C@H]([C@@H](C)O)NC(=O)[C@H](CCCCN)NC(=O)[C@H](Cc2c[nH]c3ccccc23)NC(=O)[C@H](Cc2ccccc2)NC(=O)[C@H](Cc2ccccc2)NC(=O)[C@H](CC(N)=O)NC(=O)[C@H](CCCCN)NC1=O [Somatostatin, reference compound] |  |  |  |  |  |  | about 10 micrograms per kilogram | about 10 micrograms per kilogram | about 10 micrograms per kilogram |  |  |
| C[C@@H](O)[C@@H]1NC(=O)[C@H](Cc2ccccc2)NC(=O)[C@H]([C@@H](C)O)NC(=O)[C@H](CCCCN)NC(=O)[C@H](Cc2c[nH]c3ccccc23)NC(=O)[C@H](Cc2ccccc2)NC(=O)[C@H](Cc2ccccc2)NC(=O)[C@H](CC(N)=O)NC(=O)CCSSC[C@@H](C(=O)O)NC(=O)[C@H](CO)NC1=O [V, β-Mercaptopropionyl-L-asparaginyl-L-phenylalanyl-L-phenylalanyl-L-tryptophyl-L-lysyl-L-threonyl-L-phenylalanyl-L-threonyl-L-seryl-L-cysteine cyclic (1→11) disulfide] ([Mpa]NFFWKTFTSC-OH; disulfide 1-11) | significantly reduced | significantly reduced | 4.40 | > 1.90 | > 1.90 | > 1.90 |  |  |  |  |  |
| CSCC[C@@H]1NC(=O)[C@H](Cc2ccccc2)NC(=O)[C@H](CC(N)=O)NC(=O)[C@H](CCCCN)NC(=O)[C@@H](NC(=O)CNC(=O)[C@H](C)N)CSSC[C@@H](C(=O)O)NC(=O)[C@H](CO)NC(=O)[C@H]([C@@H](C)O)NC(=O)[C@H](Cc2ccccc2)NC(=O)[C@H]([C@@H](C)O)NC(=O)[C@H](CCCCN)NC(=O)[C@H](Cc2c[nH]c3ccccc23)NC1=O [VI, L-Alanyl-glycyl-L-cysteinyl-L-lysyl-L-asparaginyl-L-phenylalanyl-L-methionyl-L-tryptophyl-L-lysyl-L-threonyl-L-phenylalanyl-L-threonyl-L-seryl-L-cystein cyclic (3→14) disulfide] (H-AGCKNFMWKTFTSC-OH; disulfide 3-14) | significantly reduced | significantly reduced | 4.40 | > 1.0 | > 1.0 | > 1.0 |  |  |  | significantly reduced |  |
| D-Lys^9 -SRIF |  |  |  |  |  |  |  |  |  |  | no appreciable effect |
